According to patent US9670172B2, “Heterocyclic compounds and methods of use” (Medivation Technologies, Inc., priority 2014, dated 2017):
Read-outs that look alike come from different tables or passages of the source.

Assays:
[1] = tested on: SREBP2; assay: SREBP2 cleavage in HEPG2 cells (Western blot normalized to actin); type: cell-based; settings: Homo sapiens, read-out: Average SREBP2 cleavage (% Inhibition, n = 3)
Description: Average SREBP2 cleavage in HEPG2 cells was measured in the presence of compounds disclosed in Table 1. HepG2 cells were seeded at 500,000 cells per well in 6-well plates in DMEM supplemented with 10% FBS. After 2 days, cells were treated with compounds (20 μM) for 1 day in DMEM without FBS. Western blots were normalized with respect to actin.
The results are shown in Table 3 as percent inhibition@20 μM, and in Table 4 as percent inhibition@5 μM.

[2] = HepG2 cell viability by MTS; type: cell-based; settings: human; 20 μM, HepG2 cells, 3 days, DMEM without FBS, MTS; read-out: Average Viability (% Inhibition, n = 3)
Description: For viability measurements, HepG2 cells were seeded at 5,000 cells per well in 96-well plates in DMEM supplemented with 10% FBS. After 1 day in culture, cells were treated with compounds (20 μM & 5 μM) for 3 days in DMEM without FBS. Viability was measured by MTS. Treatment with compounds (20 μM & 5 μM) was carried out in medium without FBS, and viability was measured by MTS. […]

[3] = 24 h, 20 μM, HepG2 cells, 1 day, DMEM without FBS

| SMILES | inhibition at 20 µM [1, 3] | cytotoxicity at 3 days, 20 μM [2] | inhibition at 20 µM ([1]; HepG2, 24 h) | inhibition at 5 µM ([1]; 5 μM, HepG2 cells) |
| --- | --- | --- | --- | --- |
| CCCc1cc(-c2nc(-c3ccc(NS(=O)(=O)C(F)(F)F)cc3)cs2)ccn1 [Compound 1, 1,1,1-trifluoro-N-(4-(2-(2-propylpyridin-4-yl)thiazol-4-yl)phenyl)methanesulfonamide] | 73.7% | 92.1% | – | – |
| CCCc1cc(-c2nc(-c3cccc(NS(=O)(=O)C(F)(F)F)c3)cs2)ccn1 [Compound 2, 1,1,1-trifluoro-N-(3-(2-(2-propylpyridin-4-yl)thiazol-4-yl)phenyl)methanesulfonamide] | – | 80.5% | 73% | – |
| CCCc1cc(-c2nc(-c3ccc(NS(=O)(=O)C(F)(F)F)cc3Cl)cs2)ccn1 [Compound 4, N-(3-chloro-4-(2-(2-propylpyridin-4-yl)thiazol-4-yl)phenyl)-1,1,1-trifluoromethanesulfonamide] | – | 94.4% | 96.1% | – |
| COc1cc(-c2csc(-c3ccnc(CC(C)C)c3)n2)ccc1NS(=O)(=O)C(F)(F)F [Compound 57, 1,1,1-trifluoro-N-(2-methoxy-4-{2-[2-(2-methylpropyl)pyridin-4-yl]-1,3-thiazol-4-yl}phenyl)methanesulfonamide] | 46.9% | 56.4% | – | – |
| CCCc1cc(-c2nc(-c3ccc(NS(=O)(=O)C(F)(F)F)c(OC)c3)cs2)ccn1 [Compound 58, 1,1,1-trifluoro-N-{2-methoxy-4-[2-(2-propylpyridin-4-yl)-1,3-thiazol-4-yl]phenyl}methanesulfonamide] | 29.4% | 67.9% | – | – |
| COc1cc(-c2csc(-c3ccnc(C(C)(C)C)c3)n2)ccc1NS(=O)(=O)C(F)(F)F [Compound 59, N-(4-(2-(2-tert-butylpyridin-4-yl)thiazol-4-yl)-2-methoxyphenyl)-1,1,1-trifluoromethanesulfonamide] | 60.6% | 99.8% | – | – |
| Nc1cc(-c2nc(-c3ccc(NS(=O)(=O)C(F)(F)F)cc3Cl)cs2)ccn1 [Compound 61, N-{4-[2-(2-aminopyridin-4-yl)-1,3-thiazol-4-yl]-3-chlorophenyl}-1,1,1-trifluoromethanesulfonamide] | 2% | 43% | – | – |
| CS(=O)(=O)Nc1cc(-c2nc(-c3ccc(NS(=O)(=O)C(F)(F)F)cc3Cl)cs2)ccn1 [Compound 62, N-{3-chloro-4-[2-(2-methanesulfonamidopyridin-4-yl)-1,3-thiazol-4-yl]phenyl}-1,1,1-trifluoromethanesulfonamide] | 0% | 0% | – | – |
| CCCc1cc(-c2nc(-c3ccc(NS(=O)(=O)C(F)(F)F)c(O)c3)cs2)ccn1 [Compound 63, 1,1,1-trifluoro-N-(2-hydroxy-4-(2-(2-propylpyridin-4-yl)thiazol-4-yl)phenyl)methanesulfonamide] | 39% | 47% | – | – |
| O=S(=O)(Nc1ccc(-c2csc(-c3ccnc(NS(=O)(=O)C(F)(F)F)c3)n2)c(Cl)c1)C(F)(F)F [Compound 66, N-{3-chloro-4-[2-(2-trifluoromethanesulfonamidopyridin-4-yl)-1,3-thiazol-4-yl]phenyl}-1,1,1-trifluoromethanesulfonamide] | 0% | 11% | – | – |
| O=C(c1ccc(-c2nc(-c3ccc(NS(=O)(=O)C(F)(F)F)cc3Cl)cs2)cc1)N1CCCCC1 [Compound 67, N-(3-chloro-4-{2-[4-(piperidine-1-carbonyl)phenyl]-1,3-thiazol-4-yl}phenyl)-1,1,1-trifluoromethanesulfonamide] | 3% | 20% | – | – |
| O=S(=O)(Nc1ccc(-c2csc(-c3c(F)cnc4[nH]ccc34)n2)c(Cl)c1)C(F)(F)F [Compound 89, N-[3-chloro-4-(2-{5-fluoro-1H-pyrrolo[2,3-b]pyridin-4-yl}-1,3-thiazol-4-yl)phenyl]-1,1,1-trifluoromethanesulfonamide] | – | – | – | 53% |
